Experimental findings from paper PMC3432467 (2012) are described below.

This assay addresses flavodoxin II (apoflavodoxin) (Azotobacter vinelandii, UniProt P00324, C70A). The assay can be described thus: FMN fluorescence increase on dilution of holoprotein. Type of assay: binding.

flavodoxin II (apoflavodoxin), sequence (P00324 2-180 C70A): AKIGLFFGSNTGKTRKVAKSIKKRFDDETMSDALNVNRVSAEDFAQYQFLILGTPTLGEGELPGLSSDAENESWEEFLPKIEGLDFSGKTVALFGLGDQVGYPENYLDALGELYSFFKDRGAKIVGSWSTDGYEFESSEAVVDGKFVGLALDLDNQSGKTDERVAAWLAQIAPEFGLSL

Broadly, the Kd is the constant that tells how readily two partners part at equilibrium. Read a high Kd as weaker binding. `Cc1cc2nc3c(=O)[nH]c(=O)nc-3n(C[C@H](O)[C@H](O)[C@H](O)COP(=O)(O)O)c2cc1C` [flavin mononucleotide] had a Kd of 3.82 pM.
